Experimental data as given in patent US20220162200A1, “PKM2 MODULATORS AND METHODS FOR THEIR USE” (Sumitomo Dainippon Pharma Oncology, Inc., priority 2019, published 2022).
pEC50: −log10 of the molar value.

Experiments:
[1] = molecular target: PKM2 (Homo sapiens, UniProt P14618); assay: PKM2 activation assay (ATP formation measured by Kinase Glo); assay type: biochemical; details: 2 nM PKM2, 30 min pre-incubation, 75 μM ADP, 15 μM PEP, ATP formation after 30 min
Procedure: Compounds were pre-incubated with 2 nM PKM2 in reaction buffer (50 mM Tris-HCl, pH 8.0, 200 mM KCl, 30 mM MgCl2, 2 mM Dithiothreitol (DTT), 5% Dimethyl sulfoxide (DMSO)) for 30 min at ambient temperature. Adenosine diphosphate (ADP) and Phosphoenolpyruvic acid (PEP) were then added to final concentrations of 75 μM and 15 μM, respectively. After 30 min, Adenosine triphosphate (ATP) formation was measured by Kinase Glo (Promega, Madison, Wis.), and AC50 values were determined using Prism (GraphPad Software, Inc., La Jolla, Calif.).

[2] = test system: A549 cells; assay: A549 cell viability by ATPlite assay; assay type: cell-based; details: Homo sapiens, A549 cells in BME media lacking nonessential amino acids + 5% dialyzed serum, 72 hours
Procedure: A549 cells were seeded at 5000 cells per well (in 96-well plate) in Basal Medium Eagle (BME) media lacking nonessential amino acids+5% dialyzed serum. After 18 hours, a negative control (i.e., DMSO only) or a representative compound in 0.1% final concentration DMSO was added. After 72 hours, cell viability was determined by ATPlite assay and EC50 values were determined using Prism GraphPad Software (La Jolla, Calif.).

Sequence of PKM2 (P14618 whole entry): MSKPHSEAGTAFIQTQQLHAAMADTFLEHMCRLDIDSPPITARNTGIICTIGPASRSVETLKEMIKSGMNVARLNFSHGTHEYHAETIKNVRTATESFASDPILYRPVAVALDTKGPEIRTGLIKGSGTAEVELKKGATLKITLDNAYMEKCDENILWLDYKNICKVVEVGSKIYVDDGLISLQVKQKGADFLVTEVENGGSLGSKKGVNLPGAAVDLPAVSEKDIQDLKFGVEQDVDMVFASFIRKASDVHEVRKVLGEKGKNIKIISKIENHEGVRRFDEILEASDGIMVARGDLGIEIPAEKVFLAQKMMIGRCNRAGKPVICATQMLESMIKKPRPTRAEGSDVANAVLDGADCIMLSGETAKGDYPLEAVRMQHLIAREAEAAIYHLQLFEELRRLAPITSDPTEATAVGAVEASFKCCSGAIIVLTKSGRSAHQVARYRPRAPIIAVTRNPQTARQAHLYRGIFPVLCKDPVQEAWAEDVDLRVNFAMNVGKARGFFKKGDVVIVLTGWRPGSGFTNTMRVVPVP

SMILES | AC50 [1] | pEC50 [2]
Nc1cccc(Cl)c1CN(CCC1CCS(=O)(=O)CC1)C(=O)c1cc(C(F)(F)F)n[nH]1 [Compound Ia, N-(2-amino-6-chlorobenzyl)-N-(2-(1,1-dioxidotetrahydro-2H-thiopyran-4-yl)ethyl)-3-(trifluoromethyl)-1H-pyrazole-5-carboxamide] | < 0.015 µM | 
O=C(c1cc(C(F)(F)F)n[nH]1)N(CCC1CCS(=O)(=O)CC1)Cc1c(F)cccc1Br [Compound Ib, N-(2-bromo-6-fluorobenzyl)-N-(2-(1,1-dioxidotetrahydro-2H-thiopyran-4-yl)ethyl)-3-(trifluoromethyl)-1H-pyrazole-5-carboxamide] | 0.015 to 0.05 µM | < 7.00
Cc1ccc(F)c(CN(CCC2CCS(=O)(=O)CC2)C(=O)c2cc(C(F)(F)F)n[nH]2)c1 [Compound Ic, N-(2-(1,1-dioxidotetrahydro-2H-thiopyran-4-yl)ethyl)-N-(2-fluoro-5-methylbenzyl)-3-(trifluoromethyl)-1H-pyrazole-5-carboxamide] | 0.015 to 0.05 µM | 7.00 to 7.30
O=C(c1cc(C(F)(F)F)n[nH]1)N(CCC1CCS(=O)(=O)CC1)Cc1c(F)ccc2cc[nH]c12 [Compound Id, N-(2-(1,1-dioxidotetrahydro-2H-thiopyran-4-yl)ethyl)-N-((6-fluoro-1H-indol-7-yl)methyl)-3-(trifluoromethyl)-1H-pyrazole-5-carboxamide] | < 0.015 µM | 
O=C(c1cc(C(F)(F)F)n[nH]1)N(CCC1CCS(=O)(=O)CC1)Cc1c(F)ccc2c(Cl)c[nH]c12 [Compound Ie, N-(2-(1,1-dioxidotetrahydro-2H-thiopyran-4-yl)ethyl)-N-((3-chloro-6-fluoro-1H-indol-7-yl)methyl)-3-(trifluoromethyl)-1H-pyrazole-5-carboxamide] | < 0.015 µM | 
NCc1ccc(F)c(CN(CCC2CCS(=O)(=O)CC2)C(=O)c2cc(C(F)(F)F)n[nH]2)c1 [Compound If, N-(2-(1,1-dioxidotetrahydro-2H-thiopyran-4-yl)ethyl)-N-(2-fluoro-5-aminomethylbenzyl)-3-(trifluoromethyl)-1H-pyrazole-5-carboxamide] | 0.015 to 0.05 µM | < 7.00
O=C(c1cc(C(F)(F)F)n[nH]1)N(CCC1CCS(=O)(=O)CC1)Cc1c(F)ccc2cn[nH]c12 [Compound Ig, N-(2-(1,1-dioxidotetrahydro-2H-thiopyran-4-yl)ethyl)-N-((6-fluoro-1H-indazol-7-yl)methyl)-3-(trifluoromethyl)-1H-pyrazole-5-carboxamide] | 0.015 to 0.05 µM | < 7.00
Nc1cccc(Br)c1CN(CCC1CCS(=O)(=O)CC1)C(=O)c1cc(C(F)(F)F)n[nH]1 [Compound Ih, N-(2-amino-6-bromobenzyl)-N-(2-(1,1-dioxidotetrahydro-2H-thiopyran-4-yl)ethyl)-3-(trifluoromethyl)-1H-pyrazole-5-carboxamide] | > 0.05 µM | 
Nc1ccccc1CN(CCC1CCS(=O)(=O)CC1)C(=O)c1cc(C(F)(F)F)n[nH]1 [Compound Ii, N-(2-aminobenzyl)-N-(2-(1,1-dioxidotetrahydro-2H-thiopyran-4-yl)ethyl)-3-(trifluoromethyl)-1H-pyrazole-5-carboxamide] | > 0.05 µM | 7.00 to 7.30
O=C(c1cc(C(F)(F)F)n[nH]1)N(CCC1CCS(=O)(=O)CC1)Cc1c(F)cccc1Cl [Compound Ij, N-(2-chloro-6-fluorobenzyl)-N-(2-(1,1-dioxidotetrahydro-2H-thiopyran-4-yl)ethyl)-3-(trifluoromethyl)-1H-pyrazole-5-carboxamide] | > 0.05 µM | 
